Measurements: US20230149362A1, “NEW CAPSULE COMPOSITION FOR PERORAL ADMINISTRATION” (Vicore Pharma AB, priority 2020, published 2023)
Where a name gives a salt, the structure may show the parent alone.

Assay: Solubility of C21 sodium salt in lipid-based excipients (UPLC)
Type: physicochemical
Description: C21 sodium salt (RISE AB, Södertälje, Sweden) was mixed with various potential carriers in the proportions described in Table 5 below (mg of C21 per gram of excipient) and absolute solubility of C21 was determined, two and five days after mixing.
The procedure was carried out by first weighing around 2.955 g of each excipient into a 20 mL headspace vial. Then, 0.045 g of C21 was added to each vial to reach a starting concentration of 15 mg/g. A magnetic stirrer was added into each mixture to stir the dispersion during the entire study (at around 300 rpm).
Solubility was determined at room temperature in general, although some of the excipients listed below (those marked with an asterisk) are solid at room temperature, in which case solubility was determined at 60° C.
The mixtures were observed over time to confirm excipient saturation. In the case of complete C21 solubilization (i.e. no particles were visible), addition of C21 was performed until a maximum API concentration of 100 mg/g was attained.
After confirming that the saturation point had been reached, or after reaching the maximum API concentration of 100 mg/g, sampling of the mixtures were performed after two (T2) and five (T5) days of stirring.
At each tirnepoint, and for each excipient, sampling was performed. The samples were filtered prior to assaying to determine the C21 sodium salt solubility in each excipient.
Two analytical samples were prepared from the filtrate obtain a mean value.
A Waters UPLC Acquity system (CSH C18; 100×2.1 mm×1.7 μm) with a UV and a DED detector was used to quantitatively determine solubility. The following chromatograhpic conditions were applied: (A) mobile phase water with 003% TFA, (6) acetonitrile with 0.03% TFA, with gradient, flow rate 0.5 mL/min, temperature 40° C., run time 24 minutes, injection volume 2 μL at room temperature.

C21 Mean Solubility T5 Assay (Fasted Simulated Intestinal Fluid (FaSSIF), five days, room temperature): 10.4 mg/g
C21 Mean Solubility T2 Assay (Fasted Simulated Intestinal Fluid (FaSSIF), two days, room temperature): 10.4 mg/g
C21 Mean Solubility T5 Assay (Fed Simulated Intestinal Fluid (FeSSIF), five days, room temperature): 0.6 mg/g
C21 Mean Solubility T2 Assay (Fed Simulated Intestinal Fluid (FeSSIF), two days, room temperature): 0.3 mg/g
C21 Mean Solubility T5 Assay (Gelucire 43/01, five days, 60° C.): 0.0 mg/g
C21 Mean Solubility T2 Assay (Gelucire 43/01, two days, 60° C.): 0.0 mg/g
C21 Mean Solubility T5 Assay (Gelucire 44/14, five days, 60° C.): 43.9 mg/g
C21 Mean Solubility T2 Assay (Gelucire 44/14, two days, 60° C.): 44.1 mg/g
C21 Mean Solubility T5 Assay (Glyceryl monolinoleate (Maisine CC), five days, room temperature): 60.4 mg/g
C21 Mean Solubility T2 Assay (Glyceryl monolinoleate (Maisine CC), two days, room temperature): 61.4 mg/g
C21 Mean Solubility T5 Assay (Glyceryl monooleate (Peceol), five days, room temperature): 82.2 mg/g
C21 Mean Solubility T2 Assay (Glyceryl monooleate (Peceol), two days, room temperature): 82.3 mg/g
solubility (Labrafil M2130CS, at 60° C.): around 14 mg/g
C21 Mean Solubility T5 Assay (Lauryl polyoxyl-6-glycerides (Labrafil M 2130 CS), five days, 60° C.): 13.5 mg/g
C21 Mean Solubility T2 Assay (Lauryl polyoxyl-6-glycerides (Labrafil M 2130 CS), two days, 60° C.): 13.9 mg/g
C21 Mean Solubility T5 Assay (Linoleoyl polyoxyl-6-glycerides (Labrafil M 2125 CS), five days, room temperature): 21.1 mg/g
C21 Mean Solubility T2 Assay (Linoleoyl polyoxyl-6-glycerides (Labrafil M 2125 CS), two days, room temperature): 22.0 mg/g
C21 Mean Solubility T5 Assay (Medium chain triglycerides (Miglyol 812N), five days, room temperature): 0.0 mg/g
C21 Mean Solubility T2 Assay (Medium chain triglycerides (Miglyol 812N), two days, room temperature): 0.0 mg/g
C21 Mean Solubility T5 Assay (Oleoyl polyoxyl-6-glycerides (Labrafil M 1944 CS), five days, room temperature): 20.1 mg/g
C21 Mean Solubility T2 Assay (Oleoyl polyoxyl-6-glycerides (Labrafil M 1944 CS), two days, room temperature): 19.5 mg/g
C21 Mean Solubility T5 Assay (Polyoxyethylene (20) sorbitan monooleate (Tween 80), five days, room temperature): 84.8 mg/g
C21 Mean Solubility T2 Assay (Polyoxyethylene (20) sorbitan monooleate (Tween 80), two days, room temperature): 85.2 mg/g
C21 Mean Solubility T5 Assay (Propylene glycol monocaprylate (Capryol PGMC), five days, room temperature): 7.1 mg/g
C21 Mean Solubility T2 Assay (Propylene glycol monocaprylate (Capryol PGMC), two days, room temperature): 7.1 mg/g
C21 Mean Solubility T5 Assay (Propylene glycol monolaurate (Lauroglycol 90), five days, room temperature): 12.4 mg/g
C21 Mean Solubility T2 Assay (Propylene glycol monolaurate (Lauroglycol 90), two days, room temperature): 12.4 mg/g
C21 Mean Solubility T5 Assay (Refined corn oil (Henry Lamotte), five days, room temperature): 0.0 mg/g
C21 Mean Solubility T2 Assay (Refined corn oil (Henry Lamotte), two days, room temperature): 0.0 mg/g
C21 Mean Solubility T5 Assay (Refined sesame oil (Henry Lamotte), five days of stirring, room temperature): 0.2 mg/g
C21 Mean Solubility T2 Assay (Refined sesame oil (Henry Lamotte), two days of stirring, room temperature): 0.2 mg/g
C21 Mean Solubility T5 Assay (Sorbitan monooleate (Montane 80), five days, room temperature): 61.5 mg/g
C21 Mean Solubility T2 Assay (Sorbitan monooleate (Montane 80), two days, room temperature): 61.6 mg/g
C21 Mean Solubility T5 Assay (Sorbitan trioleate (Span 85), five days, room temperature): 12.1 mg/g
C21 Mean Solubility T2 Assay (Sorbitan trioleate (Span 85), two days, room temperature): 15.1 mg/g
C21 Mean Solubility T5 Assay (Soya oil (Henry Lamotte), five days, room temperature): 0.0 mg/g
C21 Mean Solubility T2 Assay (Soya oil (Henry Lamotte), two days, room temperature): 0.0 mg/g
C21 Mean Solubility T5 Assay (Triacetin (Kollisolv GTA), five days, room temperature): 0.3 mg/g
C21 Mean Solubility T2 Assay (Triacetin (Kollisolv GTA), two days, room temperature): 0.2 mg/g
solubility in words (triglyceride-based excipients): essentially insoluble
Structure (SMILES): CCCCOC(=O)NS(=O)(=O)c1sc(CC(C)C)cc1-c1ccc(Cn2ccnc2)cc1 [C21 sodium salt, N-butyloxycarbonyl-3-(4-imidazol-1-ylmethylphenyl)-5-iso-butylthiophene-2-sulfonamide]
